Data reported in ChEMBL document CHEMBL1201862, “PubChem BioAssay data set” (2004).
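Method: 48-hour compound exposure of cells in 96-well plates, five concentrations, linear interpolation of endpoints. GI50 is the concentration that inhibits growth by half.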 Active and inactive are the calls of the source. Cut-off read from the data, not from the text of the source: active = GI50 up to about 1.1 µM and inactive = higher.

Columns and labels:
Test in all cases: inhibition of tumour cell growth, NCI panel, 48 h
MCF7 = tested on: MCF7
SF-539 = tested on: SF-539
TK-10 = tested on: TK-10
SK-MEL-2 = tested on: SK-MEL-2
M14 = tested on: M14
SF-268 = tested on: SF-268
Hs-578T = tested on: Hs-578T
MDA-N = tested on: MDA-N
HT-29 = tested on: HT-29
SN12C = tested on: SN12C
UACC-257 = tested on: UACC-257
UO-31 = tested on: UO-31
A498 = tested on: A498
SK-MEL-5 = tested on: SK-MEL-5
HCT-15 = tested on: HCT-15
HOP-92 = tested on: HOP-92
RPMI-8226 = tested on: RPMI-8226
UACC-62 = tested on: UACC-62
CAKI-1 = tested on: CAKI-1
SK-MEL-28 = tested on: SK-MEL-28

| SMILES | GI50 (MCF7) | GI50 (SF-539) | GI50 (TK-10) | GI50 (SK-MEL-2) | GI50 (M14) | GI50 (SF-268) | GI50 (Hs-578T) | GI50 (MDA-N) | GI50 (HT-29) | GI50 (SN12C) | GI50 (UACC-257) | GI50 (UO-31) | GI50 (A498) | GI50 (SK-MEL-5) | GI50 (HCT-15) | GI50 (HOP-92) | GI50 (RPMI-8226) | GI50 (UACC-62) | GI50 (CAKI-1) | GI50 (SK-MEL-28) |
| --- | --- | --- | --- | --- | --- | --- | --- | --- | --- | --- | --- | --- | --- | --- | --- | --- | --- | --- | --- | --- |
| CCCCc1ccc(Nc2nc(O)c3ncn(COCCO)c3n2)cc1 | > 100 µM (inactive) | > 100 µM (inactive) | > 100 µM (inactive) | > 100 µM (inactive) | > 100 µM (inactive) | > 100 µM (inactive) | > 100 µM (inactive) | > 100 µM (inactive) | > 100 µM (inactive) | > 100 µM (inactive) | > 100 µM (inactive) | > 100 µM (inactive) | > 100 µM (inactive) | > 100 µM (inactive) | > 100 µM | > 100 µM (inactive) | 43.9 µM (inactive) | > 100 µM (inactive) | – | – |
| CCCC(=O)Nc1ccc2c(c1)CN1C(=O)c3ccccc3C1=N2 | > 100 µM (inactive) | > 100 µM (inactive) | > 100 µM (inactive) | > 100 µM (inactive) | > 100 µM (inactive) | > 100 µM (inactive) | > 100 µM (inactive) | > 100 µM (inactive) | > 100 µM (inactive) | > 100 µM (inactive) | > 100 µM (inactive) | > 100 µM (inactive) | – | > 100 µM (inactive) | > 100 µM | > 100 µM (inactive) | > 100 µM (inactive) | > 100 µM (inactive) | > 100 µM (inactive) | > 100 µM (inactive) |
| COc1ccc(CC(N)c2ccc(OC)cc2)cc1 (centres undefined) | 44.5 µM (inactive) | – | > 100 µM (inactive) | – | 48 µM (inactive) | > 100 µM (inactive) | 43.9 µM (inactive) | 36.8 µM (inactive) | 45.4 µM (inactive) | > 100 µM (inactive) | 42 µM (inactive) | 90.6 µM (inactive) | > 100 µM (inactive) | 43.4 µM (inactive) | > 100 µM | 29.4 µM (inactive) | 28.1 µM (inactive) | 71.3 µM (inactive) | > 100 µM (inactive) | 38.4 µM (inactive) |
| CCOC(=O)C(C)c1nc2cc(N3CCN(C)CC3)c(F)cc2[nH]c1=O (centres undefined) | > 100 µM (inactive) | > 100 µM (inactive) | – | > 100 µM (inactive) | > 100 µM (inactive) | > 100 µM (inactive) | > 100 µM (inactive) | > 100 µM (inactive) | > 100 µM (inactive) | > 100 µM (inactive) | > 100 µM (inactive) | > 100 µM (inactive) | > 100 µM (inactive) | > 100 µM (inactive) | > 100 µM | > 100 µM (inactive) | > 100 µM (inactive) | > 100 µM (inactive) | > 100 µM (inactive) | > 100 µM (inactive) |
| CC(C)(C)C1=NC(=P(c2ccccc2)(c2ccccc2)c2ccccc2)C(=O)O1 | > 100 µM (inactive) | – | > 100 µM (inactive) | > 100 µM (inactive) | > 100 µM (inactive) | > 100 µM (inactive) | > 100 µM (inactive) | > 100 µM (inactive) | > 100 µM (inactive) | > 100 µM (inactive) | > 100 µM (inactive) | > 100 µM (inactive) | > 100 µM (inactive) | > 100 µM (inactive) | – | > 100 µM (inactive) | > 100 µM (inactive) | > 100 µM (inactive) | > 100 µM (inactive) | > 100 µM (inactive) |
| N#CCc1nc(-c2cc3ccc(O)cc3oc2=O)cs1 | 47.6 µM (inactive) | 69.3 µM (inactive) | > 100 µM (inactive) | 27.2 µM (inactive) | 46.5 µM (inactive) | 83.2 µM (inactive) | 66.1 µM (inactive) | 48.9 µM (inactive) | 72.9 µM (inactive) | 54.8 µM (inactive) | 41.7 µM (inactive) | 37.2 µM (inactive) | – | 38.7 µM (inactive) | 35.9 µM | > 100 µM (inactive) | 25.7 µM (inactive) | 22.6 µM (inactive) | > 100 µM (inactive) | 35.2 µM (inactive) |
| N#Cc1nc(CSCc2ccccc2)oc1N | > 100 µM (inactive) | > 100 µM (inactive) | > 100 µM (inactive) | > 100 µM (inactive) | > 100 µM (inactive) | > 100 µM (inactive) | > 100 µM (inactive) | > 100 µM (inactive) | > 100 µM (inactive) | > 100 µM (inactive) | > 100 µM (inactive) | > 100 µM (inactive) | > 100 µM (inactive) | – | > 100 µM | > 100 µM (inactive) | – | > 100 µM (inactive) | > 100 µM (inactive) | > 100 µM (inactive) |
